Source: publication PMC5442318, “Hundreds of dual-stage antimalarial molecules discovered by a functional gametocyte screen” (Nature Communications, 2017)
pIC50: −log10 of the molar value. Like-named read-outs stand apart in the source and are kept apart here.

Experiments:
[1] = system: P. falciparum female gametes; test: Pf FGAA with compounds added 30 min after triggering gametocyte activation (gamete-targeting); assay type: cell-based, Plasmodium falciparum NF54; conditions: 0h incubation time
[2] = system: P. falciparum stages IV–V gametocytes; test: Gametocytocidal ATP-depletion assay (gametocyte ATP bioluminescence); assay type: cell-based, Plasmodium falciparum; conditions: for inhibition at 2 µM: Plasmodium falciparum, mean
In short: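 Read-out is luciferase luminescence of parasite ATP (BacTiter-Glo), standing in for viability. Double-purified mature stage IV–V gametocytes, 12,500 per well, were exposed 48 h at 37 °C in low-O2 gas; screening concentration 2 μM.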

[3] = system: P. falciparum asexual blood stages; conditions: cited from earlier work; for pIC50: read-out: Pf Asexual blood stages XC50
[4] = system: HepG2 cells; test: HepG2 cytotoxicity assay; assay type: cell-based; conditions: for Selectivity ratio: HepG2 TOX50 versus Pf FGAA IC50
In short: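 Cell viability is measured by CellTiter-Glo luminescence. Signal is developed at room temperature and read 10 min after adding the reagent, with plates and reagent first equilibrated for 30 min.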

[5] = system: P. falciparum stage V female gametocytes; test: P. falciparum female gametocyte activation assay (Pf FGAA), 24 h or 48 h preincubation, Pfs25 expression readout; assay type: cell-based, Plasmodium falciparum NF54; conditions: for IC50: 24h incubation time, read-out: Pf FGAA IC50 (µM) 24h; for pIC50: mean, read-out: Gametocytes mean Pf FGAA IC50; for Pf FGAA classification: SLOW / FAST / GAMETE from activity at 48h, 24h, 0h incubation
In short: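 Female activation, triggered by xanthurenic acid and cooling, was scored by imaging Cy3-labelled anti-Pfs25 female gametes after 24 h at 26 °C. Beforehand, purified NF54 stage V gametocytes had been incubated with compound for either 24 h or 48 h (37 °C, 3% O2). Values are pIC50 from full-curve regression.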

[6] = TCAMS asexual blood stage data, ref 1 (Gamo, F. J. et al., Nature 465, 305-310, 2010)
[7] = TCAMS data, ref 1 (Gamo, F. J. et al., Nature 465, 305-310, 2010)
[8] = Plasmodium falciparum, P. falciparum female gametocytes
[9] = TCAMS data, ref 1 (Gamo et al., 2010)
[10] = P. falciparum female gametocytes

SMILES	pIC50 [3, 6]	Pf Asexual stages XC50 [3, 7] [nM]	Pf FGAA classification [5]	IC50 [1] [µM]	Gametocytes mean ATP inhibition at 2µM (%) [2] [%]	pIC50 [3, 9]	HepG2 cells mean TOX50 ([4]; mean) [µM]	IC50 [5] [µM]	pIC50 [5]	further results
N#Cc1c(F)cc(N2CCC(NCC[C@H](N)Cc3ccc(F)c(F)c3)CC2)cc1F [TCMDC-132121]	6.07	860	SLOW							IC50 ([1]; Plasmodium falciparum): 7.08 µM; inhibition at 2 µM [2]: 7.46%; Selectivity ratio [4]: 6.30; HepG2 cells mean TOX50 ([4]; human, 48 h): 4.58 µM; IC50 ([5]; Plasmodium falciparum): 7.16 µM; pIC50 [5, 8]: 6.14
COc1cc2nc(Nc3ccc4c(ccn4Cc4ccccc4)c3)nc(Nc3ccc4c(ccn4Cc4ccccc4)c3)c2cc1OC [TCMDC-138237]		650	SLOW	> 20	12.64	6.19	14.13	5.44	5.80	
O=C(Nc1nc(-c2ccccn2)cs1)c1ccc(Br)s1 [TCMDC-123868]	5.97	1060	GAMETE	2.14				0.14		Gametocytes mean ATP inhibition at 2µM [2]: 29.36%; HepG2 cells mean TOX50 ([4]; HepG2 cells, mean): 37.44 µM; pIC50 [5, 10]: 5.94
O=C(Nc1cc(Cl)c(Cl)cc1NC(=O)c1cccc(-c2ccccc2)c1O)c1cccc(-c2ccccc2)c1O [TCMDC-139548]		510	FAST	> 20	18.16	6.29	3.09	2.22	5.96	
Clc1nc(Cl)c2c(ccn2Cc2ccccc2)n1 [TCMDC-137801]		790	FAST	> 20	-14.95	6.10	>100	2.29	5.84	HepG2 cells TOX50 ([4]; HepG2 cells): >100 µM
CCN1CCC2(c3cccc(OC)c3)Cc3nc4ccccc4c(-c4ccccc4)c3CC2C1 (stereo not shown) [TCMDC-138968]		790	SLOW	> 20	21.53	6.46	33.25	> 20	5.84	
O=C(NCC1CCN(Cc2cccc(C(F)(F)F)c2)C1)c1cc(-c2cccc(F)c2)cs1.O=C(O)C(F)(F)F (stereo not shown) [TCMDC-134484]	5.93	1180	SLOW	> 20				2.82		Gametocytes mean ATP inhibition at 2µM [2]: -3.56%; HepG2 cells mean TOX50 ([4]; HepG2 cells, mean): 18.87 µM; pIC50 [5, 10]: 5.65
CC(C)(C)c1ccc(CNCCOc2ccc(Nc3nnc(-c4ccc(-c5ncc[nH]5)cc4)o3)c3ccccc23)cc1.O=C(O)C(F)(F)F [TCMDC-138667]		140	SLOW	13.2	-11.45	6.85	5.96	3.03	6.21	
Cl.Fc1cc(Cl)ccc1Nc1ccnc2cc(-c3ccc(CN4CCNCC4)o3)ccc12 [TCMDC-138394]		280	SLOW	> 20	1.31	6.55	12.05	10	5.72	
O=C(Nc1ccc([N+](=O)[O-])cc1)Nc1cc(OCC(F)(F)F)cc(OCC(F)(F)F)c1 [TCMDC-124533]	6.33	470	SLOW							IC50 ([1]; Plasmodium falciparum): 5.64 µM; inhibition at 2 µM [2]: -45.2%; Selectivity ratio [4]: 5.40; HepG2 cells mean TOX50 ([4]; HepG2 cells, mean): 6.24 µM; IC50 ([5]; Plasmodium falciparum): 2.32 µM; pIC50 [5, 8]: 5.94
O=C(CCC1CCCC1)N(Cc1ccc(-c2ccc(CNCCc3ccccc3)cc2)cc1)C1CCCNC1.O=C(O)C(F)(F)F (stereo not shown) [TCMDC-141444]	5.91	1220	SLOW	15.3				6.85		Gametocytes mean ATP inhibition at 2µM [2]: 26.17%; HepG2 cells mean TOX50 ([4]; mean, HepG2 cells): 5.19 µM; pIC50 ([5]; P. falciparum female gametocyte activation assay): 5.70
